Literature values as cited in US20260098030A1, “NEGATIVE ALLOSTERIC MODULATORS OF METABOTROPIC GLUTAMATE RECEPTOR 2” (Vanderbilt University, priority 2022, published 2026).

Columns and labels:
[1] = in vivo; cited from earlier work
[2] = treatment for 7 days; cited from earlier work
rat = conditions: normal animals; cited from earlier work
[3] = test system: social isolation-reared mice; conditions: cited from earlier work
mice = conditions: cited from earlier work
[4] = test system: olfactory bulbectomized rats; conditions: repeated administration for 14 days; cited from earlier work
mouse = conditions: normal animals; cited from earlier work

N[C@]1(C(=O)O)[C@H]2[C@@H](C[C@H]1OCc1ccc(Cl)c(Cl)c1)[C@]2(F)C(=O)O [MGS0039]
freezing behavior, CFS model [1]: significantly decreased freezing behavior | number of escape failures, learned helplessness test [2]: significantly reduced the number of escape failures | antidepressant-like effects in rat forced swim test (rat): Antidepressant-like effects | immobility in the FST [3]: reversed the increased immobility | marble-burying behavior (mice): reduced marble-burying behavior in a significant and dose dependent manner | spontaneous locomotor activity (mice): no significant change | hyperactivity in the open field test [4]: attenuated the hyperactivity | learning deficit in the passive avoidance test [4]: attenuated the learning deficit | antidepressant-like effects in mouse tail-suspension test (mouse): Antidepressant-like effects
